≈ marks a conversion by molar mass, not a printed value. Peptide text beside a SMILES is read from it.
Assays:
[1] = tested on: Staphylococcus epidermidis JCM 2414; assay: microbe, parasite or virus in culture; type: cell-based; conditions: 37° C., 20 hours
Description: (§1) ATP (%) of the antibacterial activity was measured in the same manner as mentioned above, and the “minimum inhibitory concentration (MIC)” was measured as follows. MIC is the lowest concentration of an agent that may inhibit the growth of a bacterium. MIC is used as a parameter for the efficacy of an antibacterial agent, for the strength of bacterial sensitivity, or the like. The bacteria can grow (proliferate) when the concentration is not higher than MIC, and cannot grow when the concentration is higher than MIC. […] (CLSI), but, in this Example, its measurement was carried out by a broth microdilution method in accordance with “M100-S17/M7-A7” (Performance Standards for Antimicrobial Susceptibility Testing; Seventeenth Informational Supplement, Vol. 27 No. 1) published by CLSI on January, 2007. That is, sensitivity test of agents was carried out using a microtiter plate or test tubes. The bacteria were cultured in the liquid media for 4 to 6 hours, and thereafter absorbances at A600 were measured. Bacterial suspensions were diluted with Mueller-Hinton broth (MHB) according to McFarland #0.5. Each strain was added so as to attain about 10^5 CFU/ml (final concentration). Each peptide was prepared to an optional concentration, and the solutions were serially diluted from the concentration. The polypeptide at each concentration stage was added to a microplate or test tubes, and the bacterial suspension was added thereto. […] The plate was incubated at 37° C. for 20 hours, the lowest concentration where bacterial growth was inhibited was regarded as the minimum inhibitory concentration. With respect to each strain, Escherichia coli: ATCC 25922 (Escherichia coli ATCC 25922), Pseudomonas aeruginosa: ATCC 27853 (Pseudomonas aeruginosa ATCC 27853), Staphylococcus aureus: ATCC29213 (Staphylococcus aureus ATCC29213), Klebsiella pneumoniae: JCM 1662 (Klebsiella pneumoniae JCM 1662), enterobacteria (1): JCM 1232 (Enterobacter cloacae JCM 1232), enterobacteria (2): JCM 1235 (Enterobacter aerogenes JCM 1235), and Staphylococcus epidermidis: JCM 2414 (Staphylococcus epidermidis JCM 2414), were used. […] As the concentrations of the agents in ATP assay, the concentrations as described in the Tables were used.

[2] = in vitro; type: in vitro ADME, rat; conditions: for half-life: rat serum, 37° C.; for remaining at 0.5 h, 500 μg/mL / remaining at 1 h, 500 μg/mL / remaining at 10 min, 500 μg/mL: rat, serum
Description: Then, the stability of five polypeptides SR-1 to 5 in serum was evaluated.
In human serum (purchased from KAC Co., Ltd.), or in rat serum obtained by collecting blood from a rat, then leaving the collected blood to stand at room temperature followed by centrifugation, each of the peptides was dissolved so as to attain a final concentration of 500 μg/mL, and the obtained solutions were left to stand at 37° C. After leaving to stand for 10 min or 30 min or 60 min, these solutions were subjected to HPLC chromatogram analysis to detect peaks of the decomposition products, and calculate the ratio of the concentration of the peptides which remained in the solutions relative to the starting concentration. In addition, the half-lives of the peptides in serum were also calculated.
HPLC chromatogram analysis conditions are as follows.

[3] = tested on: Pseudomonas aeruginosa ATCC27853; assay: Antibacterial activity, ATP assay (BacTiter-Glo); type: cell-based; conditions: for ATP (%) mean, Pseudomonas aeruginosa: Table 4-1, ATP assay concentration: peptides 10, TOB 1.0, CPFX 1.0, OX 0.5, MEPM 1.0 μg/ml; for antibacterial activity against Pseudomonas aeruginosa compared with AG30-5C: 10 μg/mL, ATP assay
Description: (§2) The antibacterial activity of the polypeptides was measured using an ATP assay method. That is, using BacTiter-Glo Microbial Cell Viability Assay kit available from PROMEGA, the antibacterial activity of the peptides was evaluated from the viability of bacteria. […] With respect to the strains, Staphylococcus aureus ATCC29213 (S. aureus ATCC29213) as Gram-positive bacteria, or, alternatively, Pseudomonas aeruginosa (P. aeruginosa ATCC27853) as Gram-negative bacteria, was used. The bacteria were cultured in media for 3 to 4 hours, and thereafter absorbances at A600 were measured. Bacterial suspensions were diluted with Mueller-Hinton broth (MHB) according to McFarland #0.5. Each strain was added so as to attain about 0.5−1×10^5 CFU/mL (final concentration) in terms of Escherichia coli. […] A solution to which the peptides were not added was considered as a negative control, and a solution to which tobramycin (TOB) was added was considered as a positive control. […] Relative values were calculated by comparison with the negative control, and these values were regarded as the viability. ATP (%) of the antibacterial activity was measured in the same manner as mentioned above, and the “minimum inhibitory concentration (MIC)” was measured as follows. MIC is the lowest concentration of an agent that may inhibit the growth of a bacterium. MIC is used as a parameter for the efficacy of an antibacterial agent, for the strength of bacterial sensitivity, or the like. The bacteria can grow (proliferate) when the concentration is not higher than MIC, and cannot grow when the concentration is higher than MIC. Its measurement is carried out according to a method defined as a standard method by Japanese Society of Chemotherapy or CLINICAL AND LABORATORY […] (CLSI), but, in this Example, its measurement was carried out by a broth microdilution method in accordance with “M100-S17/M7-A7” (Performance Standards for Antimicrobial Susceptibility Testing; Seventeenth Informational Supplement, Vol. 27 No. 1) published by CLSI on January, 2007. That is, sensitivity test of agents was carried out using a microtiter plate or test tubes. With respect to each strain, Escherichia coli: ATCC 25922 (Escherichia coli ATCC 25922), Pseudomonas aeruginosa: ATCC 27853 (Pseudomonas aeruginosa ATCC 27853), Staphylococcus aureus: ATCC29213 (Staphylococcus aureus ATCC29213), Klebsiella pneumoniae: JCM 1662 (Klebsiella pneumoniae JCM 1662), enterobacteria (1): JCM 1232 (Enterobacter cloacae JCM 1232), enterobacteria (2): JCM 1235 (Enterobacter aerogenes JCM 1235), and Staphylococcus epidermidis: JCM 2414 (Staphylococcus epidermidis JCM 2414), were used. […] As the concentrations of the agents in ATP assay, the concentrations as described in the Tables were used.

[4] = tested on: Staphylococcus aureus ATCC29213; assay: Antibacterial activity, ATP assay (BacTiter-Glo); type: cell-based; conditions: for antibacterial activity against Staphylococcus aureus compared with AG30-5C: 10 μg/mL, ATP assay; for ATP (%) mean, Staphylococcus aureus: Table 4-1, ATP assay concentration: peptides 10, TOB 1.0, OX 0.5 μg/ml
Description: as §2

[5] = tested on: Pseudomonas aeruginosa ATCC 27853; assay: microbe, parasite or virus in culture; type: cell-based; conditions: 37° C., 20 hours
Description: as §1

[6] = tested on: Staphylococcus aureus ATCC29213; assay: microbe, parasite or virus in culture; type: cell-based; conditions: 37° C., 20 hours
Description: as §1

SMILES | MIC Staphylococcus epidermidis [1] | decomposition in rat serum [2] | half-life [2] [h] | remaining at 0.5 h, 500 μg/mL [2] [%] | remaining at 1 h, 500 μg/mL [2] [%] | ATP (%) mean, Pseudomonas aeruginosa [3] [%] | antibacterial activity against Staphylococcus aureus compared with AG30-5C [4] | ATP (%) mean, Staphylococcus aureus [4] [%] | MIC Pseudomonas aeruginosa [5] | MIC ([1]; Staphylococcus epidermidis, JCM2414) [µg/mL] | MIC [6] [µg/mL] | remaining at 10 min, 500 μg/mL [2] [%] | antibacterial activity against Pseudomonas aeruginosa compared with AG30-5C [3]
CC[C@H](C)[C@H](NC(=O)[C@H](CC(C)C)NC(=O)[C@H](CCCCN)NC(=O)[C@H](CC(C)C)NC(=O)[C@@H](N)CCSC)C(=O)N[C@@H](Cc1ccccc1)C(=O)N[C@@H](CC(C)C)C(=O)N[C@@H](Cc1c[nH]cn1)C(=O)N[C@@H](CCCNC(=N)N)C(=O)N[C@@H](CC(C)C)C(=O)N[C@@H](CCCCN)C(=O)N[C@@H](CCCNC(=N)N)C(=O)N[C@@H](CCSC)C(=O)N[C@@H](CCCNC(=N)N)C(=O)N[C@@H](CCCCN)C(=O)N[C@@H](CCCNC(=N)N)C(=O)N[C@@H](CC(C)C)C(=O)N[C@@H](CCCCN)C(=O)N[C@@H](CCCNC(=N)N)C(=O)N[C@@H](CCCCN)C(=O)O [SR-1] (H-MLKLIFLHRLKRMRKRLKRK-OH; N-terminus assumed) | 128< μg/mL | completely decomposed | 0.05 | 0 | 0 | 26.0 | higher antibacterial activity against Staphylococcus aureus than AG30-5C | 5.2 |  |  |  |  | 
CSCC[C@H](NC(=O)[C@H](CCCNC(=N)N)NC(=O)[C@@H](N)CCCCN)C(=O)N[C@@H](CCCNC(=N)N)C(=O)N[C@@H](CCCCN)C(=O)N[C@@H](CCCNC(=N)N)C(=O)N[C@@H](CC(C)C)C(=O)N[C@@H](CCCCN)C(=O)N[C@@H](CCCNC(=N)N)C(=O)N[C@@H](CCCCN)C(=O)N[C@@H](CC(C)C)C(=O)N[C@@H](CCCNC(=N)N)C(=O)N[C@@H](CC(C)C)C(=O)N[C@@H](Cc1c[nH]c2ccccc12)C(=O)N[C@@H](Cc1c[nH]cn1)C(=O)N[C@@H](CCCNC(=N)N)C(=O)N[C@@H](CCCCN)C(=O)N[C@@H](CCCNC(=N)N)C(=O)N[C@@H](Cc1ccc(O)cc1)C(=O)N[C@@H](CCCCN)C(=O)O [SR-5] (H-KRMRKRLKRKLRLWHRKRYK-OH; N-terminus assumed) |  | completely decomposed | 0.0667 | 0 | 0 | 16.4 |  | 24.2 | 128≦ μg/mL |  |  |  | 
Cc1onc(-c2ccccc2)c1C(=O)N[C@@H]1C(=O)N2[C@@H]1SC(C)(C)[C@@H]2C(=O)O [OX, oxacillin, reference compound] |  |  |  |  |  | 83.1 |  | 72.8 |  | 0.12 to 0.5 (≈ 0.299 to 1.25 µM) | 0.12 to 0.5 (≈ 0.299 to 1.25 µM) |  | 
CSCC[C@H](NC(=O)[C@H](CCCNC(=N)N)NC(=O)[C@H](CCCCN)NC(=O)[C@H](CC(C)C)NC(=O)[C@H](CCCNC(=N)N)NC(=O)[C@H](Cc1c[nH]cn1)NC(=O)[C@H](CC(C)C)NC(=O)[C@H](Cc1ccccc1)NC(=O)[C@H](CCCNC(=N)N)NC(=O)[C@H](CC(C)C)NC(=O)[C@@H](N)CCC(=O)O)C(=O)N[C@@H](CCCNC(=N)N)C(=O)N[C@@H](CCCCN)C(=O)N[C@@H](CCCNC(=N)N)C(=O)N[C@@H](CC(C)C)C(=O)N[C@@H](CCCCN)C(=O)N[C@@H](CCCNC(=N)N)C(=O)N[C@@H](CCCCN)C(=O)N[C@@H](CC(C)C)C(=O)N[C@@H](CCCNC(=N)N)C(N)=O [SR-3] (H-ELRFLHRLKRMRKRLKRKLR-NH2; N-terminus assumed) |  | 35-55% | 1.12 |  | 44.4 | 3.3 | higher antibacterial activity against Staphylococcus aureus than AG30-5C | 3.5 |  |  |  | 53 | higher antibacterial activity against Pseudomonas aeruginosa than AG30-5C
CC[C@H](C)[C@H](NC(=O)[C@H](CC(C)C)NC(=O)[C@@H](N)CCCCN)C(=O)N[C@@H](Cc1ccccc1)C(=O)N[C@@H](CC(C)C)C(=O)N[C@@H](Cc1c[nH]cn1)C(=O)N[C@@H](CCCNC(=N)N)C(=O)N[C@@H](CC(C)C)C(=O)N[C@@H](CCCCN)C(=O)N[C@@H](CCCNC(=N)N)C(=O)N[C@@H](CCSC)C(=O)N[C@@H](CCCNC(=N)N)C(=O)N[C@@H](CCCCN)C(=O)N[C@@H](CCCNC(=N)N)C(=O)N[C@@H](CC(C)C)C(=O)N[C@@H](CCCCN)C(=O)N[C@@H](CCCNC(=N)N)C(=O)N[C@@H](CCCCN)C(=O)N[C@@H](CC(C)C)C(=O)N[C@@H](CCCNC(=N)N)C(N)=O [SR-4] (H-KLIFLHRLKRMRKRLKRKLR-NH2; N-terminus assumed) |  | 35-55% | 1.58 | 95 | 64.5 | 9.8 | higher antibacterial activity against Staphylococcus aureus than AG30-5C | 1.0 |  |  |  |  | 
CC(C)C[C@H](NC(=O)[C@H](CCCCN)NC(=O)[C@H](CCCNC(=N)N)NC(=O)[C@H](CCCCN)NC(=O)[C@H](CC(C)C)NC(=O)[C@H](CCCNC(=N)N)NC(=O)[C@H](CCCCN)NC(=O)[C@H](CCCNC(=N)N)NC(=O)[C@H](CC(C)C)NC(=O)[C@H](CCCNC(=N)N)NC(=O)[C@H](CCCNC(=N)N)NC(=O)[C@H](CCCCN)NC(=O)[C@H](CC(C)C)NC(=O)[C@H](CCCNC(=N)N)NC(=O)[C@H](Cc1c[nH]cn1)NC(=O)[C@H](CC(C)C)NC(=O)[C@H](Cc1ccccc1)NC(=O)[C@H](CCCNC(=N)N)NC(=O)[C@H](CC(C)C)NC(=O)[C@@H](N)CCC(=O)O)C(=O)N[C@@H](CCCNC(=N)N)C(N)=O [SR-2] (H-ELRFLHRLKRRLRKRLKRKLR-NH2; N-terminus assumed) |  | 35-55% | 1.25 |  | 51.7 | 1.0 | higher antibacterial activity against Staphylococcus aureus than AG30-5C | 4.4 |  |  |  | 69 | higher antibacterial activity against Pseudomonas aeruginosa than AG30-5C

Reference: patent US9376470B2, “Polypeptide having angiogenesis-inducing activity and antibacterial activity, and use thereof for medical purposes” (FunPep Inc., priority 2008, dated 2016)
